Reference: US11932658B2 (BRISTOL-MYERS SQUIBB COMPANY, priority 2016, dated 2024)

Molecular target: T1, PAR4 (Homo sapiens, UniProt Q96RI0)
T1 construct: expressed in transfected cells; host or cells: HEK293 PAR4 Clone 1.2A (BMS Arctic ID 383940)
T1 sequence (Q96RI0 18-385): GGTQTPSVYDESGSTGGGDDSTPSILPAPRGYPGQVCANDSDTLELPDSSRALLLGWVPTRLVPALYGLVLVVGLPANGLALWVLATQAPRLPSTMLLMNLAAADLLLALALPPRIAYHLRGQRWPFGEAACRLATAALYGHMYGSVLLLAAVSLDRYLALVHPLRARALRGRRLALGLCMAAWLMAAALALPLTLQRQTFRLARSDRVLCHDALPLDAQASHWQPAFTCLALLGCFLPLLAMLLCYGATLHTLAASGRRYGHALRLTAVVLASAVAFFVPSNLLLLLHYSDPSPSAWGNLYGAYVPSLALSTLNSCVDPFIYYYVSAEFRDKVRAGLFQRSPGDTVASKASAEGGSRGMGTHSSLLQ
Experiment: PAR4 FLIPR assay (antagonism of agonist peptide-induced calcium mobilization)
Assay type: cell-based
In short: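 Antagonism was taken as block of calcium mobilization evoked by the agonist peptide H-Ala-Phe(4-F)-Pro-Gly-Trp-Leu-Val-Lys-Asn-[…]-NH2, added after 30 min room-temperature compound preincubation in dye-loaded PAR4-transfected HEK293 cells (endogenous PAR1). Fluorescence was read on FDSS, with compound addition alone used as the agonist counter-screen; values come from 11-point concentration-response curves.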

Compound | IC50 [nM]
COc1cnc2c(-c3nc4cc(F)c5c(c4s3)C[C@H](COC(=O)Nc3cnc(C)nc3)O5)cc(Cl)cc2c1 [Example 267, (R)-(2-(6-chloro-3-methoxyquinolin-8-yl)-5-fluoro-7,8-dihydrobenzofuro[5,4-d]thiazol-7-yl)methyl (2-methylpyrimidin-5-yl)carbamate] | 1.8
COc1cnc2c(-c3nc4c(C)cc5c(c4s3)OC[C@H](COC(=O)Nc3ccnc(C)c3)O5)cc(C#N)cc2n1 [Example 92, (R)-(2-(7-cyano-2-methoxyquinoxalin-5-yl)-4-methyl-7,8-dihydro-[1,4]dioxino[2′,3′:3,4]benzo[1,2-d]thiazol-7-yl)methyl (2-methylpyridin-4-yl)carbamate] | 1.4
COc1cnc2c(-c3nc4cc(F)c5c(c4s3)C[C@@](C)(CO)O5)cc(Cl)cc2c1 [Example 285, (S)-(2-(6-chloro-3-methoxyquinolin-8-yl)-5-fluoro-7-methyl-7,8-dihydrobenzofuro[5,4-d]thiazol-7-yl)methanol] | 1.5
COc1ccc(NC(=O)OC[C@H]2COc3c(cc(C)c4oc(-c5cc(C)cc6nc(OC)cnc56)cc34)O2)cn1 [Example 16, (R)-(8-(2-methoxy-7-methylquinoxalin-5-yl)-6-methyl-2,3-dihydro-[1,4]dioxino[2,3-e]benzofuran-3-yl)methyl (6-methoxypyridin-3-yl)carbamate] | 3
COc1cnc2c(-c3nc4ccc5c(c4s3)OC[C@H](COC(=O)Nc3cnc(C)nc3)O5)cc(C)cc2c1 [Example 268, (R)-(2-(3-methoxy-6-methylquinolin-8-yl)-7,8-dihydro-[1,4]dioxino[2′,3′:3,4]benzo[1,2-d]thiazol-7-yl)methyl (2-methylpyrimidin-5-yl)carbamate] | 4.4
COc1cnc2c(-c3nc4ccc5c(c4s3)OC[C@H](COC(=O)Nc3cnc(OC[C@H](C)O)nc3)O5)cc(Cl)cc2c1 [Example 288, ((R)-2-(6-chloro-3-methoxyquinolin-8-yl)-7,8-dihydro-[1,4]dioxino[2′,3′:3,4]benzo[1,2-d]thiazol-7-yl)methyl (2-((S)-2-hydroxypropoxy)pyrimidin-5-yl)carbamate] | 2.2
COc1cnc2c(-c3nc4cc(F)c5c(c4s3)C[C@H](COC(=O)Nc3ccc(C)nc3)O5)cc(C)cc2n1 [Example 159, (R)-(5-fluoro-2-(2-methoxy-7-methylquinoxalin-5-yl)-7,8-dihydrobenzofuro[5,4-d]thiazol-7-yl)methyl (6-methylpyridin-3-yl)carbamate] | 0.6

Results, then the compound that gave them:

IC50 [nM] | Compound
33 | COc1cnc2c(-c3nc4c(C(F)F)cc5c(c4s3)OC[C@H](COC(=O)Nc3ccc(C)nc3)O5)cc(C)cc2n1 [Example 80, (R)-(4-(difluoromethyl)-2-(2-methoxy-7-methylquinoxalin-5-yl)-7,8-dihydro-[1,4]dioxino[2′,3′:3,4]benzo[1,2-d]thiazol-7-yl)methyl (6-methylpyridin-3-yl)carbamate]
1.6 | COc1ccc(NC(=O)OC[C@H]2COc3c(cc(Cl)c4nc(-c5cc(C)cc6nc(OC)cnc56)sc34)O2)cn1 [Example 1, (R)-(4-chloro-2-(2-methoxy-7-methylquinoxalin-5-yl)-7,8-dihydro-[1,4]dioxino[2′,3′:3,4]benzo[1,2-d]thiazol-7-yl)methyl (6-methoxypyridin-3-yl)carbamate]
2.9 | COc1cnc2c(-c3nc4c(F)cc5c(c4s3)OC[C@H](COC(=O)Nc3ccc(F)nc3)O5)cc(C)cc2n1 [Example 71, (R)-(4-fluoro-2-(2-methoxy-7-methylquinoxalin-5-yl)-7,8-dihydro-[1,4]dioxino[2′,3′:3,4]benzo[1,2-d]thiazol-7-yl)methyl (6-fluoropyridin-3-yl)carbamate]
170 | COc1cnc2c(-c3nc4c(C)cc5c(c4s3)OCC(COC(=O)Nc3ccc(N)nc3)O5)cc(C)cc2n1 (centres unmarked) [Example 141, (2-(2-methoxy-7-methylquinoxalin-5-yl)-4-methyl-7,8-dihydro-[1,4]dioxino[2′,3′:3,4]benzo[1,2-d]thiazol-7-yl)methyl (6-aminopyridin-3-yl)carbamate]
